Experimental data reported in US7196110B2, “N-substituted tricyclic 3-aminopyrazoles as inhibitors for the treatment of cell proliferative disorders” (Janssen Phamaceutica N.V., priority 2002, dated 2007).

Key:
[1] = system: PDGF-BB-stimulated angiogenesis; test: Anti-angiogenesis matrigel mouse model (MM assay) supplemented with PDGF-BB, plug hemoglobin content; type: in vivo, mice (C57BL/6J); settings: mice
Description: Angiogenesis inhibitory activity of a compound of this invention can be measured in vivo using the matrigel mouse model (MM Assay) of angiogenesis (Passaniti et al., Laboratory Investigation, 67: 519–528, 1992). The matrigel mouse assay is a well-established method to quantify angiogenesis (see e g. Capogrossi et al., Methods in Molecular Medicine, Vascular Disease: Molecular Biology and Gene Therapy Protocols, Edited by: A. H. Baker, Humana Press Inc., Totowa, N.J., 1999). The model has been characterized extensively for its relevance as a mimic of the process of angiogenesis and has been used extensively to evaluate in vivo both potential angiogenic and anti-angiogenic activity of numerous compounds/agents. […] All procedures involving animals were conducted in an animal facility fully accredited by the American Association for Assessment and Accreditation of Laboratory Animal Care (AAALAC) and in accordance with The Guide for the Care and Use of Laboratory Animals (NIH). […]
Normal male mice (C57BL/6J) were injected subcutaneously (ventrally below rib cage at abdominal midline) with 1.0 mL of chilled matrigel supplemented with a single purified pro-angiogenic growth factor (100–500 ng/mL of either rhPDGF-BB (supra), recombinant human basic fibroblast growth factor, rhFGF-basic (R&D System Cat. No 233-FB) or recombinant human vascular endothelial growth factor, rhVEGF (PanVera Cat. No R2951) and heparin (35 U/mL). Compounds are formulated as 0.1% suspensions (1 mg/mL final concentration) in 0.5% methylcellulose. Vehicle or test compounds (8–10 mice per treatment group) were administered orally by gavage beginning two hours after matrigel injections. […] Supernatants were removed and the hemoglobin concentration in the plug extract was measured spectrophotometrically using the Drabkin's assay method (Drabkin's reagent kit 525-A; SIGMA) and read on a Beckman DU 7400 Spectrophotometer. […] Group differences were analyzed statistically using the Mann-Whitney Test, with a p-value of 0.05 or less considered statistically significant. […]

LoVo = test: Flow cytometry and trypan blue exclusion cell counting, LoVo; type: cell-based, human
[2] = system: Human tumor cell lines (LoVo, MDA-MB-231, H460 etc.); test: Anti-tumor assay, human tumor nude mouse xenograft model; type: in vivo, athymic nude mice; settings: 50 mg/kg
Method: The anti-tumor activity of experimental compounds was evaluated in vivo using the human tumor nude mouse xenograft model. All procedures involving animals were conducted in an animal facility fully accredited by the American Association for Assessment and Accreditation of Laboratory Animal Care (AAALAC) and in accordance with The Guide for the Care and Use of Laboratory Animals (NIH). Protocols were approved by the RWJ-PRI Internal Animal Care and Use Committee (IACUC).
Human tumor cell lines (LoVo, MDA-MB-231, H460 etc.) were obtained from American Type Culture Collection and cultured under specified conditions required for each cell type. Female athymic nude mice (Charles River nu/nu) were injected subcutaneously in the inguinal region of the thigh with 1–2×10^6 tumor cells in 0.1 mL volume on day zero. For growth delay studies, mice were dosed orally with vehicle (control group) or experimental drugs beginning three days after tumor cell inoculation. Compounds were prepared in 0.5% methylcellulose and treatments were administered bid for 30–35 consecutive days. Tumor growth was measured twice a week using calipers for the duration of the treatment. Tumor areas (mm^2) were calculated as a product of length×width. […] Differences between treated and control mice were analyzed statistically by ANOVA and Dunnett's t-test. […]

[3] = system: MDAH2774 (ovarian cancer); test: Clonogenicity assay, compound in combination with irradiation, MDAH2774; type: cell-based, human
Method: Radiotherapy is a major therapeutic modality in treating many types of cancers including human prostate and ovarian cancers. The anti-proliferative activity of compounds within the scope of the invention was tested in combination with irradiation treatment.
Cells DU145 (prostate cancer) and MDAH2774 (ovarian cancer) were obtained from ATCC; growth media MEM medium (Mediatech, Herndon, Va.) was supplemented with 8% FBS, 5 U/ml penicillin and 50 μg/ml Streptomycin (Hyclone, Logan, Utah), 2 mM L-glutamine (Hyclone, Logan, Utah), 25 mM HEPES (Hyclone, Logan, Utah); McCoy's 5A medium (Mediatech, Herndon, Va.) was supplemented with 8% FBS, 50 U/ml penicillin and 50 μg/ml-Strep (Hyclone, Logan, Utah) and Glutamine 2 mM L-glutamine (Hyclone, Logan, Utah), ^137CS γ-source was a Gammacell 1000 Elite irradiator (MDS Nordion, Kanata, Ontario, Canada); DMSO; 1× PBS; Methanol; 0.25% Crystal Violet, and 60 mm tissue culture dishes.
DU145 or MDAH2774 cells at desired cell number were plated in early log phase on 60 mm dishes in MEM medium supplemented with 8% FBS, Penicillin, Streptomycin, L-glutamine, or McCoys medium supplemented with 8% FBS, Penicillin, Streptomycin and Glutamine, respectively. Cells were plated in triplicate. […] The final concentrations of the compound in the cell media ranged from 1 to 100 nM. After 24 h incubation with the test compound plates were split in two groups of equal size. The plates in the first group were irradiated with 7.3 Gy (plates containing DU145 cells) or 5.4 Gy (plates containing MDAH2774 cells) using a ^137Cs γ-source (dose rate 3.32 Gy/min). The second group of plates were treated identically but not irradiated. Cells were incubated for an additional 24 hours in medium containing test compound. Then, the cells were replenished with fresh compound-free identical medium and allowed to grow for an additional 11 days. Cells were then fixed with methanol, stained with 0.25% crystal violet, and the clones containing more than 50 cells were counted.
The activity appeared to be concentration-dependent with more dramatic effects achieved at 100 nM compound with radiation in either cell line.

SMILES	% Inhibition @ 30 mg/kg po (angiogenesis, MM assay supplemented with PDGF-BB) [1] [%]	cell cycle / growth effect in LoVo cells (LoVo)	tumor growth inhibition [2] [%]	colony formation inhibition with versus without radiation, MDAH2774 ([3]; 5.4 Gy, compound 1 to 100 nM)	concentration from which marked inhibitory activity against colony formation was shown, MDAH2774 ([3]; in the presence or absence of radiation (5.4 Gy)) [nM]	No. of MDAH2774 Clones (average of three plates) ([3]; w/Radiation (5.4 Gy), 1000 cells initially plated, compound 1 nM)	No. of MDAH2774 Clones (average of three plates) ([3]; w/Radiation (5.4 Gy), 1000 cells initially plated, compound 3 nM)	No. of MDAH2774 Clones (average of three plates) ([3]; w/Radiation (5.4 Gy), 1000 cells initially plated, compound 10 nM)	No. of MDAH2774 Clones (average of three plates) ([3]; w/Radiation (5.4 Gy), 1000 cells initially plated, compound 30 nM)	No. of MDAH2774 Clones (average of three plates) ([3]; w/Radiation (5.4 Gy), 1000 cells initially plated, compound 100 nM)	No. of MDAH2774 Clones (average of three plates) ([3]; w/o Radiation, 200 cells initially plated, compound 1 nM)	No. of MDAH2774 Clones (average of three plates) ([3]; w/o Radiation, 200 cells initially plated, compound 3 nM)	No. of MDAH2774 Clones (average of three plates) ([3]; w/o Radiation, 200 cells initially plated, compound 10 nM)	No. of MDAH2774 Clones (average of three plates) ([3]; w/o Radiation, 200 cells initially plated, compound 30 nM)	No. of MDAH2774 Clones (average of three plates) ([3]; w/o Radiation, 200 cells initially plated, compound 100 nM)
COc1cc2c(cc1OC)-c1n[nH]c(Nc3ccccc3F)c1C2 [Compound 12, (6,7-Dimethoxy-2,4-dihydro-indeno[1,2-c]pyrazol-3-yl)-(2-fluoro-phenyl)-amine]	45														
COc1cc2c(cc1OC)-c1n[nH]c(Nc3cccc(F)c3)c1C2 [Compound 14, (3-Fluoro-phenyl)-(6,7-dimethoxy-2,4-dihydro-indeno[1,2-c]pyrazol-3-yl)-amine]	40	blocked growth	72	the inhibitory effect was greater with radiation	≥ 30	121	125	121	8	3	98	96	110	35	8
